Measured values as given in patent US20130109682A1, “CYCLIC ETHER COMPOUNDS USEFUL AS KINASE INHIBITORS” (NOVARTIS AG, priority 2010, published 2013).

How the values were obtained:
[1] = tested on: KMS11 (human myeloma cell line); experiment: Cell proliferation assay (CellTiter-Glo), KMS11; type: cell-based; details: Homo sapiens, KMS-11; KMS11 cells, cell proliferation; read-out: KMS11-Luc EC50
Summary of the method: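 KMS11 cells in IMDM with 10% FBS and sodium pyruvate, seeded at 2000 cells/well on assay day. Compound added at 2× to equal volume of cells, incubated 3 days at 37° C. Viability read by CellTiter-Glo luminescence; EC50 derived.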

GSK3β = GSK3β (Homo sapiens, UniProt P49841); experiment: GSK3β ATP depletion assay; type: biochemical; details: ATP depletion assay; read-out: GSK3b IC50
Summary of the method: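 Human GSK3β (5 nM) preincubated 15 min with 10 μM biotinylated phospho-CREB peptide in pH 7.5 Tris buffer (15 mM MgCl2, 1 mM DTT, 0.1% BSA, 2.5% DMSO). Reaction started with 2 μM ATP and run to about 50% ATP depletion. Remaining ATP measured by KinaseGlo luminescence.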

FGFR3 kinase = FGFR3 kinase (Homo sapiens, UniProt P22607); experiment: FGFR3 kinase inhibition assay (LanthaScreen TR-FRET); type: biochemical
Procedure: FGFR3 Kinase Inhibition Assay
LanthaScreen™ is the detection of Time-Resolved Fluorescence Resonance Energy Transfer (TR-FRET) using lanthanide chelates to measure interactions between various binding partners. The application of TR-FRET to assay kinase activity was first described by Mathis (1995). A TR-FRET assay was used to measure FGFR3 kinase inhibitory activity. The assay panel was run on a Biomek FX liquid handling workstations. To the assay plates containing […] compound or control solutions, 4.5 μL of buffer A (50 mM TRIS-HCl pH 7.4, 2 mM DTT, 0.02% Tween 20, 0.02 mM Na3VO4, H2O nanpure) including a generic concentration of ATP (2 μM f.c.) was added per well, followed by 4.5 μL of buffer B (4 uM ATP in Buffer A) including a generic concentration of polyEAY (50 nM f.c.), FGFR3 kinase, and divalent cations. Final concentration of kinase and cations were: [FGFR3 kinase]=0.20 nM, [Mg]=3 mM, [Mn]=3 mM. After 1 hour of incubation the kinase reactions were stopped by the addition of 4.5 μL of stop solution D (50 mM EDTA, 20 mM TRIS-HCl pH 7.4, 0.04% NP-40) immediately followed by 4.5 μL of buffer A (50 mM TRIS-HCl pH 7.4, 2 mM DTT, 0.02% Tween 20, 0.02 mM Na3VO4, H2O nanpure) including the Tb-labeled P-20 antibody to give a total detection volume of 18 μL. After an incubation time of 45 min in the dark, the plates were transferred into the Pherastar fluorescence reader for counting. The effect of compound on the enzymatic activity was obtained from the linear progress curves and determined from one reading (end point measurement).

Chain of FGFR3 kinase (P22607 23-806): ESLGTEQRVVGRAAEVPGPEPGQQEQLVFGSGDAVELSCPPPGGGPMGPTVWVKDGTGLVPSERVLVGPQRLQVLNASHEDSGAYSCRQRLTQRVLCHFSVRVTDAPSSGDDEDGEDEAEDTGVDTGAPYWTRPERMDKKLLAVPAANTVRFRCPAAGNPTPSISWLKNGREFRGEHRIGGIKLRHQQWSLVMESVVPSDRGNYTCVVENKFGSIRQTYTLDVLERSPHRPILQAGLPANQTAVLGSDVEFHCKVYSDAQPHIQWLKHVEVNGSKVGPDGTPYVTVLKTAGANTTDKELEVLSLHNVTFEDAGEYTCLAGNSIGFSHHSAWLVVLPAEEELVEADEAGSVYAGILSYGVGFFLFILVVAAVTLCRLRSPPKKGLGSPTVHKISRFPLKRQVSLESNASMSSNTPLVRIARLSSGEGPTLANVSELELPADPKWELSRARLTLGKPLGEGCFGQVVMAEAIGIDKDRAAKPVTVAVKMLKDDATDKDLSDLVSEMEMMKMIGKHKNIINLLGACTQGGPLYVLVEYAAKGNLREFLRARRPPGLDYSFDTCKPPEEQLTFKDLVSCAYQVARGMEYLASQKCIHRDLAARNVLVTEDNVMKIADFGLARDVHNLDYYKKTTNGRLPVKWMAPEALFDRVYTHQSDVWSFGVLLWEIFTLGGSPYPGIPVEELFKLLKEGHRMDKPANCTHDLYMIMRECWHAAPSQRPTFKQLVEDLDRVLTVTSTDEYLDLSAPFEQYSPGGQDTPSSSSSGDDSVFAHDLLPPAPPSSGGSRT
Chain of GSK3β (P49841 whole entry, species assumed): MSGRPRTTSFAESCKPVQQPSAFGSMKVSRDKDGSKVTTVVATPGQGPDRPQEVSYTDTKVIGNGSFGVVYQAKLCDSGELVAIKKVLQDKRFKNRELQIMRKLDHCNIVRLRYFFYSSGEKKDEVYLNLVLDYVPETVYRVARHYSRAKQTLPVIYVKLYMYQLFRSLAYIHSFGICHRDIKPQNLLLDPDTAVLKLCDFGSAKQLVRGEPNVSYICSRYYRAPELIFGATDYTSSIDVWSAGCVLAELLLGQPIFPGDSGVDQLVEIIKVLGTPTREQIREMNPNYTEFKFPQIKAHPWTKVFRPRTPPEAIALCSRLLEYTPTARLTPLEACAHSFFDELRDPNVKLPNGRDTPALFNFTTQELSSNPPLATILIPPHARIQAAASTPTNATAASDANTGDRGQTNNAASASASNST

CC[C@]1(O)[C@H](C)O[C@H](c2ccncc2NC(=O)c2nc(-c3ccccc3)cnc2N)C[C@@H]1N [Example 189, 3-amino-N-(4-((2S,4S,5R,6S)-4-amino-5-ethyl-5-hydroxy-6-methyltetrahydro-2H-pyran-2-yl)pyridin-3-yl)-6-phenylpyrazine-2-carboxamide]
EC50 [1]: 8830 nM
IC50 (GSK3β): 71 nM
IC50 (FGFR3 kinase): 7400 nM

C[C@]1(O)[C@H](N)C[C@H](c2ccncc2NC(=O)c2nc(-c3ccccc3)cnc2N)O[C@@H]1C1CC1 [Example 344, 3-amino-N-(4-((2R,4R,5S,6R)-4-amino-6-cyclopropyl-5-hydroxy-5-methyltetrahydro-2H-pyran-2-yl)pyridin-3-yl)-6-phenylpyrazine-2-carboxamide]
EC50 [1]: 870 nM
IC50 (GSK3β): 29 nM
IC50 (FGFR3 kinase): 440 nM

C[C@@]1(O)[C@@H](N)C[C@@H](c2ccncc2NC(=O)c2nc(-c3ccccc3)cnc2N)OC12CC2 [Example 350, 3-amino-N-(4-((5S,7S,8R)-7-amino-8-hydroxy-8-methyl-4-oxaspiro[2.5]octan-5-yl)pyridin-3-yl)-6-phenylpyrazine-2-carboxamide]
IC50 (GSK3β): 7.8 nM

Nc1ncc(-c2ccccc2)nc1C(=O)Nc1cnccc1[C@H]1C[C@@H](N)[C@H](O)[C@@H](C2CC2)O1 [Example 346, 3-amino-N-(4-((2R,4R,5S,6R)-4-amino-6-cyclopropyl-5-hydroxytetrahydro-2H-pyran-2-yl)pyridin-3-yl)-6-phenylpyrazine-2-carboxamide]
EC50 [1]: 470 nM
IC50 (GSK3β): 9.2 nM
IC50 (FGFR3 kinase): 180 nM

CC(C)(C)[C@@H]1O[C@H](c2ccncc2NC(=O)c2nc(-c3ccccc3)cnc2N)C[C@@H](N)[C@H]1O [Example 227, 3-amino-N-(4-((2S,4R,5R,6S)-4-amino-6-tert-butyl-5-hydroxytetrahydro-2H-pyran-2-yl)pyridin-3-yl)-6-phenylpyrazine-2-carboxamide]
EC50 [1]: 5310 nM
IC50 (GSK3β): 6.4 nM
IC50 (FGFR3 kinase): 2400 nM

Nc1ncc(-c2ccccc2)nc1C(=O)Nc1cnccc1[C@H]1C[C@@H](N)[C@@]2(O)CCC[C@H]2O1 [Example 183, 3-amino-N-(4-((2R,4R,4aS,7aR)-4-amino-4a-hydroxyoctahydrocyclopenta[b]pyran-2-yl)pyridin-3-yl)-6-phenylpyrazine-2-carboxamide]
EC50 [1]: 1570 nM
IC50 (GSK3β): 4.4 nM
IC50 (FGFR3 kinase): 44 nM

CC[C@@H]1O[C@H](c2ccncc2NC(=O)c2nc(-c3ccccc3)cnc2N)C[C@H](N)[C@@]1(C)O [Example 345, 3-amino-N-(4-((2S,4S,5R,6S)-4-amino-6-ethyl-5-hydroxy-5-methyltetrahydro-2H-pyran-2-yl)pyridin-3-yl)-6-phenylpyrazine-2-carboxamide]
EC50 [1]: 3170 nM
IC50 (GSK3β): 370 nM
IC50 (FGFR3 kinase): > 10000 nM

C[C@@]1(O)[C@H](N)C[C@@H](c2ccncc2NC(=O)c2nc(-c3ccccc3)cnc2N)OC12CC2 [Example 352, 3-amino-N-(4-((5S,7R,8R)-7-amino-8-hydroxy-8-methyl-4-oxaspiro[2.5]octan-5-yl)pyridin-3-yl)-6-phenylpyrazine-2-carboxamide]
IC50 (GSK3β): 5.3 nM

Nc1ncc(-c2ccccc2)nc1C(=O)Nc1cnccc1[C@H]1C[C@@H](N)[C@H]2CCC[C@H]2O1 [Example 199, 3-amino-N-(4-((2R,4R,4aR,7aR)-4-aminooctahydrocyclopenta[b]pyran-2-yl)pyridin-3-yl)-6-phenylpyrazine-2-carboxamide]
EC50 [1]: 590 nM
IC50 (GSK3β): 7.6 nM

Nc1ncc(-c2ccccc2)nc1C(=O)Nc1cnccc1[C@H]1C[C@@H](O)[C@H](O)[C@@H](CO)O1 [Example 341, 3-amino-N-(4-((2R,4R,5S,6R)-4,5-dihydroxy-6-(hydroxymethyl)tetrahydro-2H-pyran-2-yl)pyridin-3-yl)-6-phenylpyrazine-2-carboxamide]
EC50 [1]: 10000 nM
IC50 (GSK3β): 3 nM
IC50 (FGFR3 kinase): 480 nM

Nc1ncc(-c2ccccc2)nc1C(=O)Nc1cnccc1[C@H]1C[C@@H](N)[C@@]2(O)CCCC[C@H]2O1 [Example 197, 3-amino-N-(4-((2R,4R,4aS,8aR)-4-amino-4a-hydroxyoctahydro-2H-chromen-2-yl)pyridin-3-yl)-6-phenylpyrazine-2-carboxamide]
EC50 [1]: 70 nM
IC50 (GSK3β): 8 nM

CC[C@H]1O[C@@H](c2ccncc2NC(=O)c2nc(-c3ccccc3)cnc2N)C[C@@H](N)[C@@H]1O [Example 343, 3-amino-N-(4-((2R,4R,5S,6R)-4-amino-6-ethyl-5-hydroxytetrahydro-2H-pyran-2-yl)pyridin-3-yl)-6-phenylpyrazine-2-carboxamide]
EC50 [1]: 150 nM
IC50 (GSK3β): 12 nM
IC50 (FGFR3 kinase): 35 nM

C[C@@]1(O)[C@@H](N)C[C@@H](c2ccncc2NC(=O)c2nc(-c3ccccc3)cnc2N)O[C@H]1C1CC1 [Example 347, 3-amino-N-(4-((2S,4S,5R,6S)-4-amino-6-cyclopropyl-5-hydroxy-5-methyltetrahydro-2H-pyran-2-yl)pyridin-3-yl)-6-phenylpyrazine-2-carboxamide]
EC50 [1]: 2430 nM
IC50 (GSK3β): 570 nM
IC50 (FGFR3 kinase): 8800 nM

CC(C)(C)[C@@H]1O[C@H](c2ccncc2NC(=O)c2nc(-c3ccccc3)cnc2N)C[C@H](N)[C@H]1O [Example 355, 3-amino-N-(4-((2S,4S,5R,6S)-4-amino-6-tert-butyl-5-hydroxytetrahydro-2H-pyran-2-yl)pyridin-3-yl)-6-phenylpyrazine-2-carboxamide]
EC50 [1]: 210 nM
IC50 (GSK3β): 170 nM
IC50 (FGFR3 kinase): > 10000 nM

CC[C@H]1O[C@@H](c2ccncc2NC(=O)c2nc(-c3ccccc3)cnc2N)C[C@@H](N)[C@]1(C)O [Example 348, 3-amino-N-(4-((2R,4R,5S,6R)-4-amino-6-ethyl-5-hydroxy-5-methyltetrahydro-2H-pyran-2-yl)pyridin-3-yl)-6-phenylpyrazine-2-carboxamide]
EC50 [1]: 1190 nM
IC50 (GSK3β): 120 nM
IC50 (FGFR3 kinase): 420 nM

CC(C)[C@@H]1O[C@H](c2ccncc2NC(=O)c2nc(-c3ccccc3)cnc2N)C[C@H](N)[C@H]1O [Example 240, 3-amino-N-(4-((2S,4S,5R,6S)-4-amino-5-hydroxy-6-isopropyltetrahydro-2H-pyran-2-yl)pyridin-3-yl)-6-phenylpyrazine-2-carboxamide]
EC50 [1]: 380 nM
IC50 (GSK3β): 270 nM
IC50 (FGFR3 kinase): > 10000 nM

CC(C)[C@H]1O[C@@H](c2ccncc2NC(=O)c2nc(-c3ccccc3)cnc2N)C[C@@H](N)[C@@H]1O [Example 356, 3-amino-N-(4-((2R,4R,5S,6R)-4-amino-5-hydroxy-6-isopropyltetrahydro-2H-pyran-2-yl)pyridin-3-yl)-6-phenylpyrazine-2-carboxamide]
EC50 [1]: 180 nM
IC50 (GSK3β): 8.6 nM
IC50 (FGFR3 kinase): 220 nM

CC(C)(C)[C@H]1O[C@@H](c2ccncc2NC(=O)c2nc(-c3ccccc3)cnc2N)C[C@@H](N)[C@@H]1O [Example 354, 3-amino-N-(4-((2R,4R,5S,6R)-4-amino-6-tert-butyl-5-hydroxytetrahydro-2H-pyran-2-yl)pyridin-3-yl)-6-phenylpyrazine-2-carboxamide]
EC50 [1]: 140 nM
IC50 (GSK3β): 3.2 nM
IC50 (FGFR3 kinase): 870 nM

C[C@]1(O)[C@H](N)C[C@H](c2ccncc2NC(=O)c2nc(-c3ccccc3)cnc2N)OC12CC2 [Example 353, 3-amino-N-(4-((5R,7R,8S)-7-amino-8-hydroxy-8-methyl-4-oxaspiro[2.5]octan-5-yl)pyridin-3-yl)-6-phenylpyrazine-2-carboxamide]
IC50 (GSK3β): 25 nM

Nc1ncc(-c2ccccc2)nc1C(=O)Nc1cnccc1[C@@H]1C[C@H](N)[C@]2(O)CCCC[C@@H]2O1 [Example 243, 3-amino-N-(4-((2S,4S,4aR,8aS)-4-amino-4a-hydroxyoctahydro-2H-chromen-2-yl)pyridin-3-yl)-6-phenylpyrazine-2-carboxamide]
IC50 (GSK3β): 870 nM

C[C@]1(O)[C@@H](N)C[C@H](c2ccncc2NC(=O)c2nc(-c3ccccc3)cnc2N)OC12CC2 [Example 351, 3-amino-N-(4-((5R,7S,8S)-7-amino-8-hydroxy-8-methyl-4-oxaspiro[2.5]octan-5-yl)pyridin-3-yl)-6-phenylpyrazine-2-carboxamide]
IC50 (GSK3β): 0.4 nM

Nc1ncc(-c2ccccc2)nc1C(=O)Nc1cnccc1[C@@H]1C[C@H](N)[C@@H]2CCC[C@@H]2O1 [Example 233, 3-amino-N-(4-((2S,4S,4aS,7aS)-4-aminooctahydrocyclopenta[b]pyran-2-yl)pyridin-3-yl)-6-phenylpyrazine-2-carboxamide]
EC50 [1]: 100 nM
IC50 (GSK3β): 330 nM
